{"source": "BindingDB's records for patent US12344595", "about": "(Merck Sharp & Dohme, 2025)", "target": "Sodium channel protein type 10 subunit alpha (Homo sapiens, UniProt Q9Y5Y9)", "sequence (Q9Y5Y9 whole entry)": "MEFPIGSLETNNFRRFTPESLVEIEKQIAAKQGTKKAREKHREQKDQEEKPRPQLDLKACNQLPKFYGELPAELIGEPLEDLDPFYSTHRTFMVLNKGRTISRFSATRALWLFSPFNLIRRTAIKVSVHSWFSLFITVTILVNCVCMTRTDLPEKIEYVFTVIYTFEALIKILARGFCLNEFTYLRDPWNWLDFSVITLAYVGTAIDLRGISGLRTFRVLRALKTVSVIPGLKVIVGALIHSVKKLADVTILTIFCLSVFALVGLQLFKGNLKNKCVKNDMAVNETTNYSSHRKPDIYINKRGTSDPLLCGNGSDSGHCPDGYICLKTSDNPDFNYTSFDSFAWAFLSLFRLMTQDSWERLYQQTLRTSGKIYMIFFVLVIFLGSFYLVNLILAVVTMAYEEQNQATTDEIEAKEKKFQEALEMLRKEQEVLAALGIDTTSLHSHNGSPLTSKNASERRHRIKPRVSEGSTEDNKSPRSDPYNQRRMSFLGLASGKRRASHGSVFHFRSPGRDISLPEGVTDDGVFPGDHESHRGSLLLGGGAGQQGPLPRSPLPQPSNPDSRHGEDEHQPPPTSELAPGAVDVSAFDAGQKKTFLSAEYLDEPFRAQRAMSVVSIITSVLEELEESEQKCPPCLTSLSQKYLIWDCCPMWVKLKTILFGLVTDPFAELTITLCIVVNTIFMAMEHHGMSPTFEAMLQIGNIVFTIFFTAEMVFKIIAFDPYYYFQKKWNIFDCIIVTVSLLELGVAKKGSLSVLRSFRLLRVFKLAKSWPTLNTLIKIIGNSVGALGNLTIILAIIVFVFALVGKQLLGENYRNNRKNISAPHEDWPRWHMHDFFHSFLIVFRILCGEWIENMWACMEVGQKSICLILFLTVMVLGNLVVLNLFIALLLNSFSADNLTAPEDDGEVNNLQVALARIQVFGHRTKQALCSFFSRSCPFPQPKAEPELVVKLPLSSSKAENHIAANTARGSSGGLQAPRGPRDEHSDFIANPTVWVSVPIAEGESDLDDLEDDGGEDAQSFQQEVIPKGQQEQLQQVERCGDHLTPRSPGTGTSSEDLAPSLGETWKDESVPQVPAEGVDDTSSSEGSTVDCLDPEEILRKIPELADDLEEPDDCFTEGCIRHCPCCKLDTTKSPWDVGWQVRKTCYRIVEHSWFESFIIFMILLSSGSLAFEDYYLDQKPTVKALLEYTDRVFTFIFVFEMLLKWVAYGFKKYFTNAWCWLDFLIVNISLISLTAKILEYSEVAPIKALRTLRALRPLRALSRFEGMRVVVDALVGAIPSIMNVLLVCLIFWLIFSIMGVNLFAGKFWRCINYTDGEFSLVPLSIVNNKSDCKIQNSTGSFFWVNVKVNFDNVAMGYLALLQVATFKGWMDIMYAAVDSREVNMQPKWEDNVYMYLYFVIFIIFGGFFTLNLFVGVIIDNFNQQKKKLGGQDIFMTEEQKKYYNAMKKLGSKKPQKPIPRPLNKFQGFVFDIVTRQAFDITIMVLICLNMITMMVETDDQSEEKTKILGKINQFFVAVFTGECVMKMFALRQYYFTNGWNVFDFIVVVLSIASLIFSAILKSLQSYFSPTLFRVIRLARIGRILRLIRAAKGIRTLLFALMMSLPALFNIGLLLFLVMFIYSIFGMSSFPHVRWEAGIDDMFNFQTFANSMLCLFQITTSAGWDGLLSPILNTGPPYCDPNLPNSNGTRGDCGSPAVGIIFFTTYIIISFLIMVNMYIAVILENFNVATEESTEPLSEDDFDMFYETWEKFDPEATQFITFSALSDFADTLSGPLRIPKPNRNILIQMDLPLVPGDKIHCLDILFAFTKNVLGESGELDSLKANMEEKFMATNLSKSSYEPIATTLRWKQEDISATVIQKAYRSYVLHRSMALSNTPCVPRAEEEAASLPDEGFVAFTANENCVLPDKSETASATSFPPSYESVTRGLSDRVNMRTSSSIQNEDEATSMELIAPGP", "assay": "Not found", "description": "Not found"}
{"smiles": "Cc1nc(N2CCC(F)(F)C2)c(C(=O)Nc2cccc(S(N)(=O)=O)c2)c(C)c1Cl", "note": "[US12344595, Example 5]", "values": [{"measurement": "IC50", "result": 49, "unit": "nM"}]}
